Experimental data published in patent US6355799B1, “Substituted benzene compounds, process for their preparation, and herbicidal and defoliant compositions containing them” (ISK Americas Incorporated, priority 1997, dated 2002).

What was measured:
Assay type in all cases: in vivo
[1] = tested on: redroot pigweed (Amaranthus retroflexus, AMARE); assay: Pre-emerge test, greenhouse herbicide activity screening; settings: rating scale 0-100, 14 days after application
Method in brief: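 Compounds in acetone were track-sprayed at 187 l/ha, 15–1000 g ai/ha, onto sandy loam pots. Pre-emerge seeds were sown one day before spraying, with surface watering afterwards. Post-emerge plants were at the 2–3 leaf stage and sprayed with 0.25% v/v non-ionic surfactant. Injury was rated 0–100 at 14 days.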

[2] = tested on: barnyardgrass (Echinochloa crus-galli, ECHCG); assay: as above; settings: rating scale 0-100, 14 days after application
Method in brief: (§1)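 Plants grown in 10 cm pots of sandy loam mix received acetone-dissolved compounds through a moving flat-fan nozzle. Doses ranged from 15 to 1000 g ai/ha. Pre-emerge pots were seeded one day earlier, post-emerge pots 8–21 days earlier. Fourteen days on, each pot was graded 0–100 for damage.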

[3] = tested on: green foxtail (Setaria viridis, SETVI); assay: as above; settings: rating scale 0-100, 14 days after application
Method in brief: as §1

[4] = tested on: ivyleaf morningglory (Ipomoea hederacea, IPOHE); assay: as above; settings: rating scale 0-100, 14 days after application
Method in brief: as §1

[5] = tested on: johnsongrass (Sorghum halepense, SORHA); assay: as above; settings: rating scale 0-100, 14 days after application
Method in brief: as §1

[6] = tested on: lambsquarters (Chenopodium album, CHEAL); assay: as above; settings: rating scale 0-100, 14 days after application
Method in brief: as §1

[7] = tested on: large crabgrass (Digitaria sanguinalis, DIGSA); assay: as above; settings: rating scale 0-100, 14 days after application
Method in brief: as §1

[8] = tested on: sicklepod (Cassia obtusifolia, CASOB); assay: as above; settings: rating scale 0-100, 14 days after application
Method in brief: as §1

[9] = tested on: velvetleaf (Abutilon theophrasti, ABUTH); assay: as above; settings: rating scale 0-100, 14 days after application
Method in brief: as §1

[10] = tested on: field corn (Zea mays L., var. Dekalb 535, CORN); assay: Pre-emerge test, crop safety; settings: rating scale 0-100, 14 days after application
Method in brief: as §1

[11] = tested on: upland rice (Oryza sp., var. Tebonnet, RICE); assay: Pre-emerge test, crop safety; settings: rating scale 0-100, 14 days after application
Method in brief: as §1

[12] = tested on: barnyardgrass (Echinochloa crus-galli, ECHCG); assay: Post-emerge test, greenhouse herbicide activity screening; settings: rating scale 0-100 (0 no damage, 100 complete death), 14 days after application
Method in brief: (§2)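 Compounds in acetone were track-sprayed at 15-1000 g ai/ha (187 l/ha) on sandy loam pots: pre-emerge one day after seeding, post-emerge at 2-3 leaf stage with 0.25% v/v non-ionic surfactant. Phytotoxicity was rated 14 days later on a 0 (no damage) to 100 (complete death) scale.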

[13] = tested on: common ragweed (Ambrosia artemisizfolia L., AMBEL); assay: as above; settings: rating scale 0-100 (0 no damage, 100 complete death), 14 days after application
Method in brief: as §2

[14] = tested on: green foxtail (Setaria viridis, SETVI); assay: as above; settings: rating scale 0-100 (0 no damage, 100 complete death), 14 days after application
Method in brief: as §2

[15] = tested on: ivyleaf morningglory (Ipomoea hederacea, IPOHE); assay: as above; settings: rating scale 0-100 (0 no damage, 100 complete death), 14 days after application
Method in brief: as §2

[16] = tested on: johnsongrass (Sorghum halepense, SORHA); assay: as above; settings: rating scale 0-100 (0 no damage, 100 complete death), 14 days after application
Method in brief: as §2

[17] = tested on: lambsquarters (Chenopodium album, CHEAL); assay: as above; settings: rating scale 0-100 (0 no damage, 100 complete death), 14 days after application
Method in brief: as §2

[18] = tested on: large crabgrass (Digitaria sanguinalis, DIGSA); assay: as above; settings: rating scale 0-100 (0 no damage, 100 complete death), 14 days after application
Method in brief: as §2

[19] = tested on: redroot pigweed (Amaranthus retroflexus, AMARE); assay: as above; settings: rating scale 0-100 (0 no damage, 100 complete death), 14 days after application
Method in brief: as §2

[20] = tested on: sicklepod (Cassia obtusifolia, CASOB); assay: as above; settings: rating scale 0-100 (0 no damage, 100 complete death), 14 days after application
Method in brief: as §2

[21] = tested on: velvetleaf (Abutilon theophrasti, ABUTH); assay: as above; settings: rating scale 0-100 (0 no damage, 100 complete death), 14 days after application
Method in brief: as §2

[22] = tested on: field corn (Zea mays L., var. Dekalb 535, CORN); assay: Post-emerge test, crop safety; settings: rating scale 0-100 (0 no damage, 100 complete death), 14 days after application
Method in brief: (§3)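 Each test used a mechanized track sprayer delivering 187 l/ha of acetone solution at 15–1000 g ai/ha. Post-emerge foliage at 2–3 leaves was treated with added 0.25% v/v non-ionic surfactant and bottom-watered only. Injury was assessed on day 14, where 100 means total kill.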

[23] = tested on: upland rice (Oryza sp., var. Tebonnet, RICE); assay: Post-emerge test, crop safety; settings: rating scale 0-100 (0 no damage, 100 complete death), 14 days after application
Method in brief: as §3

SMILES: CCCOC(=O)C(C)(Cl)Cc1c(OC)c(Cl)cc(F)c1-n1c(=O)cc(C(F)(F)F)n(C)c1=O (stereo not shown) [14-35]
- Pre-emerge herbicidal activity, phytotoxicity rating AMARE ([1]; 63 g ai/ha): 100
- Pre-emerge herbicidal activity, phytotoxicity rating AMARE ([1]; 250 g ai/ha): 100
- Pre-emerge herbicidal activity, phytotoxicity rating ECHCG ([2]; 63 g ai/ha): 0
- Pre-emerge herbicidal activity, phytotoxicity rating ECHCG ([2]; 250 g ai/ha): 99
- Pre-emerge herbicidal activity, phytotoxicity rating SETVI ([3]; 63 g ai/ha): 80
- Pre-emerge herbicidal activity, phytotoxicity rating SETVI ([3]; 250 g ai/ha): 100
- Pre-emerge herbicidal activity, phytotoxicity rating IPOHE ([4]; 63 g ai/ha): 0
- Pre-emerge herbicidal activity, phytotoxicity rating IPOHE ([4]; 250 g ai/ha): 0
- Pre-emerge herbicidal activity, phytotoxicity rating SORHA ([5]; 63 g ai/ha): 0
- Pre-emerge herbicidal activity, phytotoxicity rating SORHA ([5]; 250 g ai/ha): 50
- Pre-emerge herbicidal activity, phytotoxicity rating CHEAL ([6]; 63 g ai/ha): 50
- Pre-emerge herbicidal activity, phytotoxicity rating CHEAL ([6]; 250 g ai/ha): 100
- Pre-emerge herbicidal activity, phytotoxicity rating DIGSA ([7]; 63 g ai/ha): 50
- Pre-emerge herbicidal activity, phytotoxicity rating DIGSA ([7]; 250 g ai/ha): 95
- Pre-emerge herbicidal activity, phytotoxicity rating CASOB ([8]; 63 g ai/ha): 0
- Pre-emerge herbicidal activity, phytotoxicity rating CASOB ([8]; 250 g ai/ha): 0
- Pre-emerge herbicidal activity, phytotoxicity rating ABUTH ([9]; 63 g ai/ha): 100
- Pre-emerge herbicidal activity, phytotoxicity rating ABUTH ([9]; 250 g ai/ha): 100
- Pre-emerge phytotoxicity rating, crop damage CORN ([10]; 63 g ai/ha): 0
- Pre-emerge phytotoxicity rating, crop damage CORN ([10]; 250 g ai/ha): 25
- Pre-emerge phytotoxicity rating, crop damage RICE ([11]; 63 g ai/ha): 0
- Pre-emerge phytotoxicity rating, crop damage RICE ([11]; 250 g ai/ha): 10
- Post-emerge Herbicidal Activity, phytotoxicity rating ECHCG ([12]; Rate 63 g ai/ha): 100
- Post-emerge Herbicidal Activity, phytotoxicity rating ECHCG ([12]; Rate 250 g ai/ha): 100
- Post-emerge Herbicidal Activity, phytotoxicity rating AMBEL ([13]; Rate 63 g ai/ha): 100
- Post-emerge Herbicidal Activity, phytotoxicity rating AMBEL ([13]; Rate 250 g ai/ha): 100
- Post-emerge Herbicidal Activity, phytotoxicity rating SETVI ([14]; Rate 63 g ai/ha): 50
- Post-emerge Herbicidal Activity, phytotoxicity rating SETVI ([14]; Rate 250 g ai/ha): 95
- Post-emerge Herbicidal Activity, phytotoxicity rating IPOHE ([15]; Rate 63 g ai/ha): 70
- Post-emerge Herbicidal Activity, phytotoxicity rating IPOHE ([15]; Rate 250 g ai/ha): 100
- Post-emerge Herbicidal Activity, phytotoxicity rating SORHA ([16]; Rate 63 g ai/ha): 30
- Post-emerge Herbicidal Activity, phytotoxicity rating SORHA ([16]; Rate 250 g ai/ha): 70
- Post-emerge Herbicidal Activity, phytotoxicity rating CHEAL ([17]; Rate 63 g ai/ha): 100
- Post-emerge Herbicidal Activity, phytotoxicity rating CHEAL ([17]; Rate 250 g ai/ha): 100
- Post-emerge Herbicidal Activity, phytotoxicity rating DIGSA ([18]; Rate 63 g ai/ha): 50
- Post-emerge Herbicidal Activity, phytotoxicity rating DIGSA ([18]; Rate 250 g ai/ha): 95
- Post-emerge Herbicidal Activity, phytotoxicity rating AMARE ([19]; Rate 63 g ai/ha): 100
- Post-emerge Herbicidal Activity, phytotoxicity rating AMARE ([19]; Rate 250 g ai/ha): 100
- Post-emerge Herbicidal Activity, phytotoxicity rating CASOB ([20]; Rate 63 g ai/ha): 0
- Post-emerge Herbicidal Activity, phytotoxicity rating CASOB ([20]; Rate 250 g ai/ha): 90
- Post-emerge Herbicidal Activity, phytotoxicity rating ABUTH ([21]; Rate 63 g ai/ha): 95
- Post-emerge Herbicidal Activity, phytotoxicity rating ABUTH ([21]; Rate 250 g ai/ha): 100
- Post-emerge phytotoxicity rating CORN (crop damage) ([22]; Rate 63 g ai/ha): 100
- Post-emerge phytotoxicity rating CORN (crop damage) ([22]; Rate 250 g ai/ha): 100
- Post-emerge phytotoxicity rating RICE (crop damage) ([23]; Rate 63 g ai/ha): 80
- Post-emerge phytotoxicity rating RICE (crop damage) ([23]; Rate 250 g ai/ha): 100
